# Tested on: Jurkat T-cells
# Assay: CRMP2 polarization in Jurkat cells adhering to collagen I-coated slides (immunofluorescence)
# Type: cell-based
# Experimental: The CRMP2 forms, Yes kinase and intermediary filament vimentin were detected by indirect immunofluorescence on Jurkat and primary T-cells adhered to collagen I-coated slides (20 μg/ml) and fixed following treatment (acetone −20° C.; 10 min). Cells were incubated with specific antibody (1 h, 37° C.) then with Alexa 488- or 546-conjugated anti-mouse or anti-rabbit or anti-sheep IgG antibodies (1 h, 37° C.) and examined using the Axioplan II fluorescence microscope (Carl Zeiss). Nuclear counter-staining was performed using a fluorescent DNA intercalant, 4′, 6′-diamidino-2-phenylindole (DAPI, Boehringer Mannheim).
# To define a link between chemokines and CRMP2, the inventors first examined the localization of CRMP2 in Jurkat T-cells under CXCL12 signaling. They used two different anti-CRMP2 antibodies (anti-C-ter and anti-pep4) that recognize the full-length and cleaved products of CRMP2. […] This phenomenon of CRMP2 polarization was still observed after 30 minutes of treatment. […] In addition CRMP2 distribution to the uropod was concomitant with the re-localization of vimentin, which was quickly redistributed at the trailing edge of polarizing T-cells.
Molecule,decrease of CXCL12-induced CRMP2 re-localization (Jurkat cells treated with CXCL12 (100 ng/mL) in the presence of AMD3100),"increase of cells with polarized (asymmetrical) CRMP2 distribution (CXCL12 100 ng/mL, 2, 5 or 10 min, versus un-treated Jurkat T-cells)"
c1cc(CN2CCCNCCNCCCNCC2)ccc1CN1CCCNCCNCCCNCC1 [AMD3100],35%,–
"CXCL12: chemokine, stromal-derived-factor-1, ligand of the CXCR4 receptor",–,1.6 to 2 fold

# From patent US20120135009A1, “Cleaved and Phosphorylated CRMP2 as Blood Marker of Inflammatory Diseases of the Central Nervous System” (priority 2009, published 2012)
